Measured values: EP1056778B1, “G PROTEIN-COUPLED RECEPTOR ANTAGONISTS” (priority 1998, dated 1999)
Where a SMILES comes first, the peptide text is derived from it.

Target: T1, CCKAR (Rattus norvegicus, UniProt P30551)
T1 construct: expressed in transfected cells; host or cells: CHO cells
T1 sequence (P30551 1-444): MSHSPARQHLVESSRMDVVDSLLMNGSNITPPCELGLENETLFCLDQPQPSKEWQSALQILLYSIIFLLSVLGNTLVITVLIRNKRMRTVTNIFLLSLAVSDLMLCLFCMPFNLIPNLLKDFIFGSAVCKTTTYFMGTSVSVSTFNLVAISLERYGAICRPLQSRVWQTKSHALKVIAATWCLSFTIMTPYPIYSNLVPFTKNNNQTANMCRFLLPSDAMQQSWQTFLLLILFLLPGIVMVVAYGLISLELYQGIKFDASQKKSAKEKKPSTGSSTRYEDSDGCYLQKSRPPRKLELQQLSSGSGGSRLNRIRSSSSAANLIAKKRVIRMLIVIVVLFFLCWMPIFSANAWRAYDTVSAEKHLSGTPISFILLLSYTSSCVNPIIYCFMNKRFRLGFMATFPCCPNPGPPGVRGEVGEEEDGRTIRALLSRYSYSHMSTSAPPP
Experiment: Inhibition of CCK-8 evoked intracellular calcium release in CHO cells stably transfected with rat CCKAR
Type: cell-based
Description: The activity of peptides from the CCKAR transmembrane domain were tested in transfected CHO cells that stably express rat […] et al. (1997), J. Biol. Chem. 272: 14817-14824). Sulfated cholecystokinin octapeptide was the CCKAR agonist. Determination of intracellular calcium release was performed as described in example 1 above. None of CCKAR-derived peptides served as antagonists of chemokine receptors and none could inhibit HIV-1 infection. The activity of the antagonists in inhibiting signaling through the receptor was compared to the ability to prevent agonist binding (Table 4). Inhibition of signaling was assessed in CCK-8 evoked intracellular calcium release in FURA-2/AM treated CHO cells stably transfected with rat […], et al. (1997) J. Biol. Chem. 272:14817). Inhibition of ligand binding was measured with the use of a fluorescent agonist, rhodamine green CCK-8 (RG-CCK-8) and quantitative confocal laser scanning microscopy (Tarasova, et al. (1997) J. Biol. Chem. 272:14817). Peptides derived from the first, second, and sixth transmembrane domains inhibited CCK-induced signaling through the CCKAR receptor. […] Table 4. The activity of CCKAR-derived TM peptides in inhibition of CCK-8 -induced intracellular calcium release and RG-CCK-8 binding.

Concentration, required for inhibition of signaling (CCK-8-induced intracellular calcium release, CHO cells with rat CCKAR): 2 µM
potency in inhibition of ligand signaling compared with binding (comparison of signaling and binding, Table 4): comparable potencies
SMILES: CSCC[C@H](NC(=O)[C@H](CC(C)C)NC(=O)[C@H](CC(=O)O)NC(=O)[C@H](CO)NC(=O)[C@@H](NC(=O)[C@H](C)NC(=O)[C@H](CC(C)C)NC(=O)[C@H](CO)NC(=O)[C@H](CC(C)C)NC(=O)[C@H](CC(C)C)NC(=O)[C@@H](N)Cc1ccccc1)C(C)C)C(=O)N[C@@H](CC(C)C)C(=O)N[C@@H](CS)C(=O)N[C@@H](CC(C)C)C(=O)N[C@@H](Cc1ccccc1)C(=O)N[C@@H](CS)C(=O)N[C@@H](CCSC)C(=O)N1CCC[C@H]1C(=O)N[C@@H](Cc1ccccc1)C(=O)N[C@@H](CC(N)=O)C(=O)N[C@@H](CC(C)C)C(=O)N1CCC[C@H]1C(=O)O [CCKAR-2-1] (H-FLLSLAVSDLMLCLFCMPFNLP-OH)
